From publication PMC5916922, “The Bexsero Neisseria meningitidis serogroup B vaccine antigen NHBA is a high-affinity chondroitin sulfate binding protein” (Scientific Reports, 2018)
Counter-ions that a name gives are not always drawn. Like-named read-outs stand apart in the source and are kept apart here.

Tests used:
[1] = target: T1, NHBA (Neisseria Heparin Binding Antigen), recombinant (Neisseria meningitidis, UniProt Q7DD37); test: SPR, single cycle kinetics, immobilised NHBA
T1 construct: pET19b, His-tagged; forward primer codes from SPDVK (lipoprotein signal peptide removed); immobilised by amine coupling on CM5 chip

[2] = test system: NHBA (Neisseria Heparin Binding Antigen), recombinant (Neisseria meningitidis MC58 (serogroup B)); test: SPR; conditions: SPR: Biacore T200, CM5 chip, 1:5 dilution series 1 nM-100 uM, single cycle kinetics; ITC: nano-ITC, PBS-NHBA control (PBS implied); pH and temperature not …
[3] = test system: NHBA (Neisseria Heparin Binding Antigen), recombinant (Neisseria meningitidis MC58 (serogroup B)); test: ITC; conditions: SPR: Biacore T200, CM5 chip, 1:5 dilution series 1 nM-100 uM, single cycle kinetics; ITC: nano-ITC, PBS-NHBA control (PBS implied); pH and temperature not …
[4] = read-out: KD (μM) (mean ± standard deviation); recombinant NHBA amine-coupled to CM5 chip; glycan in flow
[5] = recombinant NHBA amine-coupled to CM5 chip; glycan in flow

T1 sequence (Q7DD37 25-488): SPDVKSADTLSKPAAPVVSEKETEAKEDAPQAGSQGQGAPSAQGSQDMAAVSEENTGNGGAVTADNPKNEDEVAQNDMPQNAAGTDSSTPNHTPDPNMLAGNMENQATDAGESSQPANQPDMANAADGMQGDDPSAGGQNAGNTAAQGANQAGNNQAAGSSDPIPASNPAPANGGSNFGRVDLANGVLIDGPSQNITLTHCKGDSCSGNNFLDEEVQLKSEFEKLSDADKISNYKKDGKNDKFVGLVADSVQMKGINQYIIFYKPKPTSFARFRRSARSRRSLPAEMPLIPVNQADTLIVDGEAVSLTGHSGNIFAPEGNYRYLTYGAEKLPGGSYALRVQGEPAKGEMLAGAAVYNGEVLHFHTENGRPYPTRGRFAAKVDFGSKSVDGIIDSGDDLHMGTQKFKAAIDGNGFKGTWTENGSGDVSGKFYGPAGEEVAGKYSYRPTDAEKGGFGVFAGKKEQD

CC(=O)N[C@H]1C(O)O[C@H](CO)[C@@H](O[C@@H]2O[C@H](CO)[C@H](O[C@H]3O[C@H](CO)[C@H](O)[C@H](O)[C@H]3O)[C@H](O)[C@H]2O)[C@@H]1O (stereo partly drawn) [2E, P1 antigen]
Kd [1, 4]: 14.9 ± 3.48 µM

CC(=O)N[C@H]1C(O)O[C@H](CO)[C@H](OS(=O)(=O)O)[C@@H]1O[C@@H]1OC(C(=O)O)=C[C@H](O)[C@H]1OS(=O)(=O)O (stereo partly drawn) [chondroitin disaccharide sulfated at 2 of GlcA/IdoA and 4 of GalNAc]
Kd [1, 5]: 0.5 µM

503 bp PCR fragment of N. meningitidis genomic DNA
Kd [2]: 71 nM | Kd [3]: 3330 nM

CC(=O)N[C@H]1C(O)O[C@H](CO)[C@@H](O[C@@H]2O[C@@H](C)[C@@H](O)[C@@H](O)[C@@H]2O)[C@@H]1O[C@@H]1O[C@H](CO)[C@H](O)[C@H](OS(=O)(=O)O)[C@H]1O (stereo partly drawn) [8A, Sulfo Lewis A]
Kd [1, 4]: 33.4 ± 2.54 µM

CC(=O)N[C@H]1C(O)O[C@H](COS(=O)(=O)O)[C@H](O)[C@@H]1O[C@@H]1OC(C(=O)O)=C[C@H](O)[C@H]1OS(=O)(=O)O (stereo partly drawn) [chondroitin sulfate type D disaccharide]
Kd [1, 5]: 0.0095 µM

O=S(=O)(O)O[C@@H]1[C@H](O[C@H]2O[C@@H]3CO[C@H]([C@H]2O)[C@H]3O[C@@H]2O[C@H](CO)[C@H](O)[C@H](O[C@H]3O[C@@H]4CO[C@@H]([C@H]4O)[C@H]3O)[C@H]2O)[C@@H](O)C(O)O[C@@H]1CO (stereo partly drawn) [12B, Neocarratetraose-4^1-O-sulfate (Na+)]
Kd [1, 4]: 0.446 ± 0.151 µM

O=P(O)(O)OC[C@H]1O[C@@H](O)[C@H](O)[C@@H](O)[C@@H]1O [compound 46, β-Glc6P]
Kd ([1]; recombinant NHBA amine-coupled to CM5 chip; glycan in flow; read-out: KD (μM) (mean ± standard deviation)): 0.056 ± 0.025 µM

CC(=O)N[C@H]1C(O)O[C@H](CO)[C@@H](O)[C@@H]1O[C@@H]1OC(C(=O)O)=C[C@H](O)[C@H]1O (stereo partly drawn) [13E, Hyaluronan disaccharide ΔDi-HA]
Kd [1, 4]: 0.13 ± 0.03 µM
